In patent publication US20240316051A1, “A PHARMACEUTICAL COMBINATION AND USE THEREOF” (Ascentage Pharma (Suzhou) Co., Ltd., priority 2021, published 2024):

What was measured:
Format in all cases: in vivo, mice
[1] = tested on: malignant pleural mesothelioma (MPM) PDX model (FGFR1high; BAP1mut); test: Subcutaneous malignant pleural mesothelioma (MPM) PDX model (Example 20); settings: Compound 73 100 mg/kg, Compound C 50 mg/kg, each orally every other day, 76 days; alone or combined
Protocol: (§1) A subcutaneous xenograft tumor model of human tumor immunodeficient mice was established by cell inoculation: tumor cells in logarithmic growth phase were collected, counted, resuspended in 1×PBS, and the cell suspension concentration was adjusted to 2.5-5×10^7/mL. The tumor cells were inoculated subcutaneously in the right side of immunodeficient mice with a 1 ml syringe ([…]), 5-10×10^6/0.2 mL/mouse. All animal experiments were strictly in accordance with the specifications for the use and management of experimental animals in GenePharma Co., Ltd. and Suzhou Ascentage Pharma Co., Ltd. The calculation of relevant parameters refers to the Chinese NMPA “Guidelines for Non-Clinical Research Techniques of Cytotoxic Anti-tumor Drugs”.
(§2) Animal body weight and tumor size were measured twice weekly during the experiment. The state of the animal and the presence or absence of death were observed every day. The growth of tumor and the effects of treatment on normal behavior of animals were monitored routinely, specifically involving experimental animal activity, feeding and drinking, weight gain or loss, eyes, clothing hair and other abnormalities. The deaths and clinical symptoms observed during the experiment were recorded in the raw data. All operations for administration and measurement of mouse body weight and tumor volume were performed in a clean bench. According to the requirements of the experimental protocol, after the end of the last administration, plasma and tumor tissues were collected, weighed and photographed. The plasma and tumor samples were frozen at −80° C. for ready-to-use.
(§3) Tumor volume (TV) is calculated as: TV=a×b^2/2, wherein a and b represent the length and width of the tumor to be measured, respectively.
The relative tumor volume (RTV) is calculated as: RTV=Vt/V1, wherein V1 is the tumor volume at the start of grouping and administration, and Vt is the tumor volume measured on the t day after administration. […]
Change of body weight (%)=(measured body weight-body weight at the start of grouping)/body weight at the start of grouping×100%. […]
(§4) According to the description by Clarke R., Issues in experimental design and endpoint analysis in the study of experimental cytotoxic agents in vivo in breast cancer and other models [J]. Breast Cancer Research & Treatment, 1997, 46(2-3): 255-278, synergy analysis was evaluated using the following formula: synergy factor=((A/C)×(B/C))/(AB/C); A=RTV value of drug A alone group; B=RTV value of drug B alone group; C=RTV value of the solvent control group, and AB=RTV value of the A and B combination group. […]

22RV1 prostate xenograft = test: Subcutaneous 22RV1 prostate xenograft model (Example 24)
Protocol: as §1, §2, §3
(§5) The relative tumor volume (RTV) is calculated as: RTV=Vt/V1, wherein V1 is the tumor volume at the start of grouping and administration, and Vt is the tumor volume measured on the t day after administration.
(§6) The evaluation index of anti-tumor activity is the relative tumor proliferation rate T/C (%), and the calculation formula thereof is: relative tumor proliferation rate T/C (%)=(TRTV/CRTV)×100%, TRTV is the RTV of treatment group, CRTV is the RTV of solvent control group.
Change of body weight (%)=(measured body weight-body weight at the start of grouping)/body weight at the start of grouping×100%.
(§7) A dose of drug is considered to be severely toxic if the body weight of mouse is reduced by more than 20% or the number of drug-related deaths exceeds 20%.
(§8) According to the description by Clarke R., Issues in experimental design and endpoint analysis in the study of experimental cytotoxic agents in vivo in breast cancer and other models [J]. Breast Cancer Research & Treatment, 1997, 46(2-3): 255-278, synergy analysis was evaluated using the following formula: synergy factor=((A/C)×(B/C))/(AB/C); A=RTV value of drug A alone group; B=RTV value of drug B alone group; C=RTV value of the solvent control group, and AB=RTV value of the A and B combination group.
In this experiment, subcutaneous 22RV1 prostate xenograft model was established to evaluate the anti-tumor effect of Compound 73 in combination with Compound C. The dosing regimen was as follows: • Compound C: 100 mg/kg, orally, every other day, for a total of 28 days; • Compound 73: 100 mg/kg, orally, once per day, for a total of 28 days;
The dosing regimen of each drug in the dosing regimen for the combination is the same as the dosing regimen for the single drug, for a total of 28 days.

[2] = tested on: BAP1 mut mesothelioma PDX model; test: BAP1 mut mesothelioma PDX model (Examples 15-17); settings: orally, once per day, 28 days
Protocol: as §1, §2, §3, §5, §6, §7, §8
In this experiment, a BAP1 mut mesothelioma PDX model (Lide Biotech) was established to evaluate the anti-tumor effect of Compound 73. The dosing regimen was as follows: • Compound 73: 50 mg/kg, orally, once per day, for a total of 28 days; • Compound 73: 100 mg/kg, orally, once per day, for a total of 28 days;
In this experiment, a BAP1 mut mesothelioma PDX model (Lide Biotech) was established to evaluate the anti-tumor effect of Compound 73 in combination with Compound A-1. […]

[3] = tested on: NCI-H28(X1) (BAP1mut, UHRF1high, TP53WT, CDKN2Adel, FGFRlow, NF2WT) subcutaneous mesothelioma xenograft; test: NCI-H28(X1) subcutaneous mesothelioma xenograft model (Example 23); settings: Compound C 50 mg/kg orally every other day, Compound 73 100 mg/kg orally once per day, 28 days, alone or combined
Protocol: as §1, §2, §3, §5
The evaluation index of anti-tumor activity is the relative tumor proliferation rate T/C (%), and the calculation formula thereof is: relative tumor proliferation rate T/C (%)=(TRTV/CRTV)×100%, TRTV is the RTV of treatment group, CRTV is the RTV of solvent control group. […]
as §4

CC(C)N1Cc2cc(C(F)(F)F)ncc2-c2cnc(NCc3c(F)ccc4c3CCO4)n3cnc(c23)C1=O [Compound 73, 12-(((5-fluoro-2,3-dihydrobenzofuran-4-yl)methyl)amino)-4-isopropyl-7-(trifluoromethyl)-4,5-dihydro-3H-2,4,8,11,12a-pentaazabenzo[4,5]cycloocta[1,2,3-cd]inden-3-one]
RTV @ D 76 [1]: 3.06
T/C (%) @ D 76 [1]: 53%
RTV@ D 26 (22RV1 prostate xenograft; 22RV1 xenograft, day 26, Compound 73 100 mg/kg orally once per day, Compound C 50 mg/kg (table) orally every other day): 7.91 ± 0.74
T/C(%) @ D 26 (22RV1 prostate xenograft; 22RV1 xenograft, day 26, Compound 73 100 mg/kg, Compound C 50 mg/kg (table)): 49.89%
RTV@ D 29 (22RV1 prostate xenograft; 22RV1 xenograft, day 29): 9.28 ± 0.61
RTV@ D 32 (22RV1 prostate xenograft; 22RV1 xenograft, day 32): 11.53 ± 0.68
T/C value (22RV1 prostate xenograft; day 26, Compound C 100 mg/kg orally every other day, Compound 73 100 mg/kg orally once per day, alone or combined): 49.89%
T/C (%) ([2]; Compound 73 50 mg/kg, end of study): 69.7%
T/C (%) ([2]; Compound 73 100 mg/kg, 100 mg/kg): 60%
antitumor activity (in words) ([2]; Compound 73 single agent, 50 and 100 mg/kg): dose-dependent antitumor activity
T/C (%) @ D 29 [3]: 33.06%
RTV@ D 29 ([3]; mean ± SEM): 5.05 ± 0.41
